Data taken from patent publication US11000033B2, “Ketone or oxime compound, and herbicide” (NISSAN CHEMICAL CORPORATION, priority 2014, dated 2021).

Experiments:
Format in all cases: in vivo
Scirpus juncoides [1] = assay: Test Example 1: herbicidal activity, application before weed generation in submerged conditions (symbol B); conditions: application herbicide amount 320 g/ha
Summary of the method: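 Mixed weed seeds sown in alluvial soil under 4 cm of water, with rice seedlings at the 2.5-leaf stage added. Same-day treatment: emulsion diluted to a set herbicide amount onto the water. Three weeks at 25–30 °C, then graded on a six-step scale.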

[2] = system: Echinochloa oryzacola Vasing.; assay: Test Example 2: herbicidal activity, application during weed generation in submerged conditions (symbol A); conditions: Table 23; application herbicide amount 320 g/ha; grade 0-5 by criteria of Test Example 1
Summary of the method: (§1)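 Each pot contained alluvial soil under 4 cm of water with seeds of all three weeds sown together. Following growth at 25° C. to 30° C. to the one- to two-leaf stage, the floodwater received diluted emulsion at a predetermined amount; visual assessment followed at 3 weeks.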

Scirpus juncoides [3] = assay: Test Example 2: herbicidal activity, application during weed generation in submerged conditions (symbol B); conditions: Table 23; application herbicide amount 320 g/ha; grade 0-5 by criteria of Test Example 1
Summary of the method: as §1

Cyperus difformis = assay: Test Example 3: herbicidal effect by foliage application, Wagner pot (symbol E); conditions: application herbicide amount 320 g/ha
Summary of the method: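 Seeds sown in alluvial soil kept under 0.1–0.5 cm water, greenhouse 25–30 °C; 14 d growth. Leaves treated by small sprayer with water-diluted emulsion at a predetermined rate. Effect graded by set scale, 3 weeks.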

Stellaria media = assay: Test Example 4: herbicidal effect by soil treatment (symbol P); conditions: application herbicide amount 320 g/ha
Summary of the method: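 Seeds were sown in sterilized diluvial soil, covered with about 1.5 cm of soil, and the soil surface was sprayed with a water-diluted emulsion of the compound at a predetermined rate. Plants grew in a greenhouse at 25° C. to 30° C.; effects were scored visually 3 weeks after application.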

corn = assay: Test Example 4: effect on crop by soil treatment (symbol c); conditions: application herbicide amount 320 g/ha
Summary of the method: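 Soil-treatment setup: crop and weed seeds were spot-sown into sterilized diluvial soil, then buried beneath approximately 1.5 cm of it, and the boxes were housed in a 25–30° C. greenhouse.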

Amaranthus retroflexus = assay: Test Example 5: herbicidal effect by foliage application, plastic box (symbol N); conditions: 320 g/ha, 3 weeks after application
Summary of the method: (§2)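 Greenhouse foliar test: seedlings at 14 days, grown 25° C. to 30° C. in sterilized diluvial soil; compound applied as an aqueous dilution of an emulsion; response read 3 weeks after spraying.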

Galium spurium = assay: Test Example 5: herbicidal effect by foliage application, plastic box (symbol Q); conditions: 320 g/ha, 3 weeks after application
Summary of the method: as §2

Veronica persica = assay: Test Example 5: herbicidal effect by foliage application, plastic box (symbol R); conditions: 320 g/ha, 3 weeks after application
Summary of the method: as §2

soybean = assay: Test Example 5: effect on crop by foliage application, plastic box (symbol d); conditions: 320 g/ha, 3 weeks after application
Summary of the method: (§3)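 A greenhouse held between 25° C. and 30° C. was used to grow plants sown spot-wise, beneath ~1.5 cm of soil, in boxes of sterilized diluvial soil.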

rice plant = assay: Test Example 5: effect on crop by foliage application, plastic box (symbol b); conditions: 320 g/ha, 3 weeks after application
Summary of the method: as §3

wheat = assay: Test Example 5: effect on crop by foliage application, plastic box (symbol e); conditions: 320 g/ha, 3 weeks after application
Summary of the method: as §3

| SMILES | Herbicidal effect grade, B: Scirpus juncoides (Scirpus juncoides [1]) | Herbicidal effect grade, A: Echinochloa oryzacola Vasing. [2] | Herbicidal effect grade, B: Scirpus juncoides (Scirpus juncoides [3]) | herbicidal effect on E, grade 0-5 (Cyperus difformis) | P: Stellaria media, herbicidal effect grade (Stellaria media) | c: corn, effect on crop grade (corn) | N: Amaranthus retroflexus, herbicidal effect grade (Amaranthus retroflexus) | Q: Galium spurium, herbicidal effect grade (Galium spurium) | R: Veronica persica, herbicidal effect grade (Veronica persica) | d: soybean, effect on crop grade (soybean) | b: directly sowed rice plant, effect on crop grade (rice plant) | e: wheat, effect on crop grade (wheat) | N: Amaranthus retroflexus, herbicidal effect (criteria of Test Example 1) (Amaranthus retroflexus) | Q: Galium spurium, herbicidal effect (criteria of Test Example 1) (Galium spurium) | R: Veronica persica, herbicidal effect (criteria of Test Example 1) (Veronica persica) | b: directly sowed rice plant, effect on crop (criteria of Test Example 1) (rice plant) | e: wheat, effect on crop (criteria of Test Example 1) (wheat) | also measured |
| --- | --- | --- | --- | --- | --- | --- | --- | --- | --- | --- | --- | --- | --- | --- | --- | --- | --- | --- |
| CON=C(C)CC1CC(O)=C(c2c(C)cc(Oc3ccccc3)cc2C)C1=O (stereo not shown) [6-052] | 1 (Herbicidal ratio of 5% or higher and lower than 20%) | 3 (Herbicidal ratio of 40% or higher and lower than 70%) | 0 (Herbicidal ratio of 5% or lower (almost no effect)) | 3 (Herbicidal ratio of 40% or higher and lower than 70%) | 2 (Herbicidal ratio of 20% or higher and lower than 40%) | 0 (Herbicidal ratio of 5% or lower (almost no effect)) | 0 (Herbicidal ratio of 5% or lower (almost no effect)) | 0 (Herbicidal ratio of 5% or lower (almost no effect)) | 0 (Herbicidal ratio of 5% or lower (almost no effect)) | 0 (Herbicidal ratio of 5% or lower (almost no effect)) | 5 (Herbicidal ratio of 90% or more (almost completely withered)) | 0 (Herbicidal ratio of 5% or lower (almost no effect)) | – | – | – | – | – | – |
| CON=C(C)CC1CC(O)=C(c2c(C)cc(-c3ccccn3)cc2C)C1=O (mixture of isomers) [6-051] | 4 (Herbicidal ratio of 70% or higher and lower than 90%) | 5 (Herbicidal ratio of 90% or more (almost completely withered)) | 4 (Herbicidal ratio of 70% or higher and lower than 90%) | 5 (Herbicidal ratio of 90% or more (almost completely withered)) | 2 (Herbicidal ratio of 20% or higher and lower than 40%) | 1 (Herbicidal ratio of 5% or higher and lower than 20%) | 3 (Herbicidal ratio of 40% or higher and lower than 70%) | 4 (Herbicidal ratio of 70% or higher and lower than 90%) | 4 (Herbicidal ratio of 70% or higher and lower than 90%) | 1 (Herbicidal ratio of 5% or higher and lower than 20%) | 5 (Herbicidal ratio of 90% or more (almost completely withered)) | 4 (Herbicidal ratio of 70% or higher and lower than 90%) | – | – | – | – | – | – |
| CON=C(C)CC1CC(OC(=O)N2CCOCC2)=C(c2c(C)cc(C)cc2OC)C1=O (stereo not shown) [6-094] | 5 (Herbicidal ratio of 90% or more (almost completely withered)) | 5 (Herbicidal ratio of 90% or more (almost completely withered)) | 2 (Herbicidal ratio of 20% or higher and lower than 40%) | 5 (Herbicidal ratio of 90% or more (almost completely withered)) | – | – | – | – | – | – | – | – | 0 (Herbicidal ratio of 5% or lower (almost no effect)) | 5 (Herbicidal ratio of 90% or more (almost completely withered)) | 4 (Herbicidal ratio of 70% or higher and lower than 90%) | 5 (Herbicidal ratio of 90% or more (almost completely withered)) | 4 (Herbicidal ratio of 70% or higher and lower than 90%) | Herbicidal effect grade, P: Stellaria media (Stellaria media): 0 (Herbicidal ratio of 5% or lower (almost no effect)); Effect on crop grade, c: corn (corn): 1 (Herbicidal ratio of 5% or higher and lower than 20%); d: soybean, effect on crop (criteria of Test Example 1) (soybean): 4 (Herbicidal ratio of 70% or higher and lower than 90%) |
| CON=C(C)CC1CC(OC(=O)COc2ccccc2)=C(c2c(C)cc(-c3ccc(Cl)cc3)cc2OC)C1=O (stereo not shown) [6-079] | 0 (Herbicidal ratio of 5% or lower (almost no effect)) | 3 (Herbicidal ratio of 40% or higher and lower than 70%) | 2 (Herbicidal ratio of 20% or higher and lower than 40%) | 4 (Herbicidal ratio of 70% or higher and lower than 90%) | 0 (Herbicidal ratio of 5% or lower (almost no effect)) | 0 (Herbicidal ratio of 5% or lower (almost no effect)) | – | – | – | – | – | – | 0 (Herbicidal ratio of 5% or lower (almost no effect)) | 4 (Herbicidal ratio of 70% or higher and lower than 90%) | 3 (Herbicidal ratio of 40% or higher and lower than 70%) | 5 (Herbicidal ratio of 90% or more (almost completely withered)) | 5 (Herbicidal ratio of 90% or more (almost completely withered)) | – |
| CC(CC1CC(O)=C(c2c(C)cc(C)cc2C)C1=O)=NOCc1ccccc1 (stereo not shown) [1-020] | 5 (Herbicidal ratio of 90% or more (almost completely withered)) | 5 (Herbicidal ratio of 90% or more (almost completely withered)) | 3 (Herbicidal ratio of 40% or higher and lower than 70%) | 2 (Herbicidal ratio of 20% or higher and lower than 40%) | – | – | – | 4 (Herbicidal ratio of 70% or higher and lower than 90%) | 4 (Herbicidal ratio of 70% or higher and lower than 90%) | 0 (Herbicidal ratio of 5% or lower (almost no effect)) | 5 (Herbicidal ratio of 90% or more (almost completely withered)) | 5 (Herbicidal ratio of 90% or more (almost completely withered)) | – | – | – | – | – | P (Stellaria media) herbicidal effect grade (Stellaria media): 0 (Herbicidal ratio of 5% or lower (almost no effect)); c (corn) effect on crop grade (corn): 1 (Herbicidal ratio of 5% or higher and lower than 20%) |
